Experimental data published in ChEMBL document CHEMBL1201862, “PubChem BioAssay data set” (2004).
Each block holds one compound with its values, some of them ahead of it. The source made the active and inactive calls.

Tests used:
[1] = molecular target: T1, Oxysterols receptor LXR-beta (Homo sapiens, UniProt P55055); assay type: functional, cell-based;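 also: agonist activity at LXR measured by a cell-based luminescence readout across a dose range, run as a counterscreen for daf-12 agonists; HEK293 cells with Gal4-LXR fusion and GAL4-driven luciferase reporter; potency for activation of Gal4-LXR reporter so compounds are agonists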
T1 sequence (P55055 whole entry): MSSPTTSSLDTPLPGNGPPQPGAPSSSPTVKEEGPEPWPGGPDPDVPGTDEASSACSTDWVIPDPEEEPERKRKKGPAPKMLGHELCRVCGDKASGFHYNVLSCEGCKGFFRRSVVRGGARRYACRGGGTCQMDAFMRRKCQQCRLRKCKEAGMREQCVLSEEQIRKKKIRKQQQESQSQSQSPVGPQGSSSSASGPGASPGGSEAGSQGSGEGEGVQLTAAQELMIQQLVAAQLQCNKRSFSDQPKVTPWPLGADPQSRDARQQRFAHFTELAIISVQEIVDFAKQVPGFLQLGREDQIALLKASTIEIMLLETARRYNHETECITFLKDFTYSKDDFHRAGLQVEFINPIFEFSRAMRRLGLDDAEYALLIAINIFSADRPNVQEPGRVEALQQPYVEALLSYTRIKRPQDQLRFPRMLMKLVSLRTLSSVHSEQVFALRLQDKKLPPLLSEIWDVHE

[2] = A549 lung cell viability reduction – CellTiter-Glo luminescence, cherry-pick, cytotoxicity control, dose response (AID 743484); assay type: functional, cell-based
[3] = viability loss in Vero cells – cytotoxicity control for Vif-APOBEC3G degradation inhibitor project, dose response (AID 1117358); assay type: functional; details: Vero
Transthyretin = Transthyretin (Homo sapiens, UniProt P02766); assay: Luminescence-based cell-based high throughput dose response assay to identify activators of Transthyretin (TTR) transcription.; assay type: functional
[4] = molecular target: E3 ubiquitin-protein ligase UHRF1 (Homo sapiens, UniProt Q96T88); assay: Counterscreen for inhibitors of 5-meCpG-binding domain protein 2 (MBD2): TRFRET-based biochemical high throughput dose response assay to identify inhibitors of binding of ubiquitin-like with PHD and ring finger domains 1 (UHRF1) to methylated oligonucleotide.
Sequence of E3 ubiquitin-protein ligase UHRF1 (Q96T88 whole entry, the tested form may be a part): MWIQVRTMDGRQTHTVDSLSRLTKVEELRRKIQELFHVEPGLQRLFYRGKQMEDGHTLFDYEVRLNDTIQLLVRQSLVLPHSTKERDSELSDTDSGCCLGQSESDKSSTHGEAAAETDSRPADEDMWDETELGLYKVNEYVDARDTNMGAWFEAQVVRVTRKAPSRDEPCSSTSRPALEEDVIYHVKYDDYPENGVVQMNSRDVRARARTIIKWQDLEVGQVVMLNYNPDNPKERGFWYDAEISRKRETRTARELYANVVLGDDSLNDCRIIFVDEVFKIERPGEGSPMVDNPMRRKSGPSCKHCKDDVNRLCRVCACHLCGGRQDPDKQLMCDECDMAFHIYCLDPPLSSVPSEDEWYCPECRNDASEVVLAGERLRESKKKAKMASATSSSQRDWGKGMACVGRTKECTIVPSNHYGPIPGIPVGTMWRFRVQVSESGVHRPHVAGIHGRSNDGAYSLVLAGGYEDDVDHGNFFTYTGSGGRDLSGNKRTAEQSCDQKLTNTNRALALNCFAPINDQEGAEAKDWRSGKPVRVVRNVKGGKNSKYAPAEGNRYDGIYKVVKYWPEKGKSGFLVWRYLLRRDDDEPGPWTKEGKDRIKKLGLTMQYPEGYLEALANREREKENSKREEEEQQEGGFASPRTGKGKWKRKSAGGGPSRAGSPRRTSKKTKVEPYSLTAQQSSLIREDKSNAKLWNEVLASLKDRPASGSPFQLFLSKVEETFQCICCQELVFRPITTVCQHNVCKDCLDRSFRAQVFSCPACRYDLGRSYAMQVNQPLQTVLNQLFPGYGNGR

cells [5] = details: HEK293
[6] = Luminescence Cell-Based Dose Retest to Confirm Inhibitors of Cancer Stem Cells. [Related pubchem assays (depositor defined):AID2717, AID2721]; assay type: functional; details: Homo sapiens
CAAX prenyl protease 2 = CAAX prenyl protease 2 (Saccharomyces cerevisiae S288c, UniProt Q03530); assay type: biochemical
Sequence of CAAX prenyl protease 2 (Q03530 whole entry): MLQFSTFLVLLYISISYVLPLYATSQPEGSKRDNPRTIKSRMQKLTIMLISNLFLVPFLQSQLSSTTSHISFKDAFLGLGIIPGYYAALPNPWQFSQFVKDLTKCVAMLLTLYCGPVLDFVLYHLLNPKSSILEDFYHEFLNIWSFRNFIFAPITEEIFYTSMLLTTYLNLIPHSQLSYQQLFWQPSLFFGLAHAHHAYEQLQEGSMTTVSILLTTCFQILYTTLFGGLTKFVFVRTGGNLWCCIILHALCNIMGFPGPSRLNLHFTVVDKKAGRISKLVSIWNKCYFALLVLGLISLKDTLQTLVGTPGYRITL

cells [7] = details: A549
[8] = viability loss in HepG2 liver cells – cell-based, ATP luminescence, cherry-pick, set 6, cytotoxicity control, dose response (AID 1053125); assay type: functional
[9] = reduced cellular PGC1a acetyl-lysine signal – cell-based, cherry-picked samples, dose response (AID 720514); assay type: functional;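 also: potency may reflect raised or lowered acetylation signal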
[10] = P. falciparum Dd2 growth inhibitors, dose response, SYBR Green, cherry-picked samples (AID 1159567); assay type: functional, cell-based
Paired box protein Pax-8 = Paired box protein Pax-8 (Homo sapiens, UniProt Q06710); assay: PAX8 transcriptional activity inhibition in RMG-I – RMG-I cells, luciferase, cherry-pick, dose response (AID 687027); assay type: functional, cell-based;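 also: luciferase reporter driven by Pax8 target thyroperoxidase promoter measured by SteadyGlo luminescence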
Sequence of Paired box protein Pax-8 (Q06710 whole entry): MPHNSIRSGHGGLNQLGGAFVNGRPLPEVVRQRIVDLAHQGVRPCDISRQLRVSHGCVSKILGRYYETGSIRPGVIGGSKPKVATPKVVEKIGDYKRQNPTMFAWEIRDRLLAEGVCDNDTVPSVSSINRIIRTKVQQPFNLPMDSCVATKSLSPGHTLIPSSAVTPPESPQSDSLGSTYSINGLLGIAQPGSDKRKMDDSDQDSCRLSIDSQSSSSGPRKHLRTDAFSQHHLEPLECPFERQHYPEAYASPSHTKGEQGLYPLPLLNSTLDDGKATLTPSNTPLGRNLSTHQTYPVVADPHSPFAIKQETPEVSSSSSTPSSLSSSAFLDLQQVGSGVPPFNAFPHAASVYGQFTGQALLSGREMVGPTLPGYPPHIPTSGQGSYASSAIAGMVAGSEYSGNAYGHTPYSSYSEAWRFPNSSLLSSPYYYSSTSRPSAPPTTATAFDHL

[11] = toxicity to human hepatoma HepG2 cells – cell-based, cherry-picked samples, cytotoxicity control, dose response (AID 1159577); assay type: functional
[12] = OVCAR8 cell viability loss – plate reader, dry powder samples, PAX8 project, dose response (AID 743197); assay type: functional, cell-based; details: OVCAR-8
[13] = molecular target: Metabotropic glutamate receptor 5 (Rattus norvegicus, UniProt P31424); assay: Identification of a glycine sulfonamide based non-MPEP site positive allosteric potentiator (PAM) of mGlu5 (calcium_assay).; assay type: functional
Sequence of Metabotropic glutamate receptor 5 (P31424 whole entry): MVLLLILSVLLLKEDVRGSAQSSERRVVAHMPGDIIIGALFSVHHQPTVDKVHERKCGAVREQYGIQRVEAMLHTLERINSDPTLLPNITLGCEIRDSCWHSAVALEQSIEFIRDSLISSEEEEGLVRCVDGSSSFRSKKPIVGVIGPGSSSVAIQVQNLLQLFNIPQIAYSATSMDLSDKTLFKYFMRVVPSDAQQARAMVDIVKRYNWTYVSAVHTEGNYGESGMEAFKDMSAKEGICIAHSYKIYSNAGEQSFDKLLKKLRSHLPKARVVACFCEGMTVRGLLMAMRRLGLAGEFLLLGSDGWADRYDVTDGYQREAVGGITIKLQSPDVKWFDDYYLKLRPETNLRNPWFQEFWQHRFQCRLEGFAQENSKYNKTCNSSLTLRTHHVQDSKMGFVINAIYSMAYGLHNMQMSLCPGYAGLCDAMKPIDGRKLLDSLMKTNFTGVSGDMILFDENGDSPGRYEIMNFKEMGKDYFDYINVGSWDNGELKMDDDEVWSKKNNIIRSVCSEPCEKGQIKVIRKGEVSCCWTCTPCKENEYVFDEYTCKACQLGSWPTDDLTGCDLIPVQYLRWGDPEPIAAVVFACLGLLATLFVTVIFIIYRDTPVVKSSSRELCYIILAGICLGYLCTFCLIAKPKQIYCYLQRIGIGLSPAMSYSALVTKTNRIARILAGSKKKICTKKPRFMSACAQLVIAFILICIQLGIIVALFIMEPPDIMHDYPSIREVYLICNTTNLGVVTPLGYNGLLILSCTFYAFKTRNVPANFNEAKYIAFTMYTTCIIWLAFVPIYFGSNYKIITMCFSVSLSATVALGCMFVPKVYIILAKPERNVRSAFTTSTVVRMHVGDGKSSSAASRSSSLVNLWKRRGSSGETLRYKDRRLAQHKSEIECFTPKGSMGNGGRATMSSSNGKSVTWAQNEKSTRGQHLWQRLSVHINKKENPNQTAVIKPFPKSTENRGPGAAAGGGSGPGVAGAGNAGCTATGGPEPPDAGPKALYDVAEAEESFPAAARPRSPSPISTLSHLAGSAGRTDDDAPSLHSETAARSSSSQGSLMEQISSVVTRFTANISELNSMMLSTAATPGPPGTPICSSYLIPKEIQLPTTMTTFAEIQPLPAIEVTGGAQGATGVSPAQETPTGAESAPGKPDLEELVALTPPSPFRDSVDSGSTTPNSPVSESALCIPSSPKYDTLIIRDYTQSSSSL

EC50 [1]: > 67.4 µM (inactive)
Compound: N#Cc1c(N)nc(N)nc1Nc1ccc(Br)cc1

Compound: Cc1cc(C)c(C#N)c(N2CCN(c3ccccc3)CC2)n1
AC50 [2]: > 52 µM (inactive)

Compound: CC1CCCCN1C(=O)c1ccc(S(=O)(=O)N2CCCCC2C)cc1 (configuration not stated)
CC50 [3]: > 40 µM (active)

EC50 (Transthyretin): > 167 µM (inactive)
Compound: Cc1cccc(N(C)c2ncnc3onc(-c4ccc(F)cc4)c23)c1C

IC50 [4]: > 0.541 µM (active)
Compound: COc1ccc2c(=O)c3c(=O)n(-c4ccccc4)c(-c4ccc(C)cc4)nc3oc2c1

Compound: CCCCCCSc1cc(-c2nc3cc(C)ccn3c2NCCCC)ccc1OC
AC50 (cells [5]): 45.7 µM (active) | AC50 [6]: 7.54 µM (active) | AC50 (CAAX prenyl protease 2): 19.8 µM (active) | AC50 (cells [7]): 45.6 µM (active) | AC50 [8]: 30.3 µM (active)

Compound: O=C(Nc1ccc(C(F)(F)F)cc1)N1C[C@@H]2N[C@H](C1)[C@@H]2c1ccc(-c2cccc(F)c2)cc1
AC50 [9]: 4.04 µM (active) | AC50 [10]: 3.45 µM (active) | AC50 (Paired box protein Pax-8): 22.4 µM (active) | AC50 [11]: 3.52 µM (active)

Compound: C[C@H](CO)N1C[C@H](C)[C@@H](CN(C)CC2CCCCC2)Oc2c(NC(=O)CCCCCC(=O)Nc3ccccc3N)cccc2C1=O
AC50 [12]: 46.8 µM (active) | AC50 (Paired box protein Pax-8): 11.1 µM (active)

EC50 [13]: 1.39 µM
Compound: CS(=O)(=O)N(CC(=O)NC1CCC1)c1cc(C(F)(F)F)ccc1Cl
